Assay results from patent US9284333B2, “Fused pyrroledicarboxamides and their use as pharmaceuticals” (SANOFI, priority 2012, dated 2016).

target: Human TASK-1 channels (Homo sapiens (Human), UniProt O14649); assay: Determination of the activity on the TASK-1 channel in Xenopus oocytes (two-microelectrode voltage clamp); format: cell-based; conditions: compound concentration 5 μM
Method in brief: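 Current during 500 ms pulses to 40 mV from a −90 mV hold was recorded in oocytes expressing human TASK-1 for two days after cRNA injection. Compounds were added cumulatively to the ND96 bath (pH 7.4, room temperature). IC50 came from dose-response fitting of inhibition relative to pre-compound current.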

Sequence of Human TASK-1 channels (O14649 whole entry): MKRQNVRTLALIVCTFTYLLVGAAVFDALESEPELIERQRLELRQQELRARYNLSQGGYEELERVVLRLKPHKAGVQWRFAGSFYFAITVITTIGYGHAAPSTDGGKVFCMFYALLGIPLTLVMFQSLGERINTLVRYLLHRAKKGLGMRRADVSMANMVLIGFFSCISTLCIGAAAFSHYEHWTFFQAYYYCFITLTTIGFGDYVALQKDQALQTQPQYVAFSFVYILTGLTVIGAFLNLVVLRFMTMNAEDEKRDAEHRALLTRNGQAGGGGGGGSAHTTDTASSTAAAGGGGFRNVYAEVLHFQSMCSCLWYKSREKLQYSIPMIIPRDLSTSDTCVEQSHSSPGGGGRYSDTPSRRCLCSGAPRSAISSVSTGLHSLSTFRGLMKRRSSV

inhibition at 5 µM [%]	SMILES
89	C[C@@H](NC(=O)c1cc(C(=O)NCC2CC2)c2n1CCOC2)c1ccc(F)cc1 [16ds, 3,4-Dihydro-1H-pyrrolo[2,1-c][1,4]oxazine-6,8-dicarboxylic acid 8-cyclopropylmethyl-amide 6-{[(R)-1-(4-fluoro-phenyl)-ethyl]-amide}]
72	CC(c1ncccn1)N(CC1CC1)C(=O)c1cc(C(=O)N[C@H](C)c2ccc(F)cc2)n2c1COCC2 (stereo partly drawn) [16ea, 3,4-Dihydro-1H-pyrrolo[2,1-c][1,4]oxazine-6,8-dicarboxylic acid 8-[cyclopropylmethyl-(1-pyrimidin-2-yl-ethyl)-amide] 6-{[(R)-1-(4-fluoro-phenyl)-ethyl]-amide}]

same assay, conditions: human TASK-1 expressed in Xenopus oocytes, room temperature; read-out: IC50 value for TASK-1 inhibition

SMILES	IC50 [nM]
CC[C@@H](NC(=O)c1cc(C(=O)N[C@H](CC)c2ccccc2)n2c1SCC2)c1ccccc1 [16kv, 2,3-Dihydro-pyrrolo[2,1-b]thiazole-5,7-dicarboxylic acid bis-[((R)-1-phenyl-propyl)-amide]]	320
CC[C@@H](NC(=O)c1cc(C(=O)NCc2ccno2)n2c1COCC2)c1ccccc1 [16hf, 3,4-Dihydro-1H-pyrrolo[2,1-c][1,4]oxazine-6,8-dicarboxylic acid 6-[(isoxazol-5-ylmethyl)-amide] 8-[((R)-1-phenyl-propyl)-amide]]	380
CCC(NC(=O)c1cc(C(=O)N[C@H](CC)c2ccccc2)c2n1CCOC2)c1ccc(C)nc1 (stereo partly drawn) [16ho, 3,4-Dihydro-1H-pyrrolo[2,1-c][1,4]oxazine-6,8-dicarboxylic acid 6-{[1-(6-methyl-pyridin-3-yl)-propyl]-amide} 8-[((R)-1-phenyl-propyl)-amide]]	730
CC[C@@H](NC(=O)c1cc(C(=O)N[C@H](C)c2ccc(F)cc2)n2c1SCC2)c1ccccc1 [16kt, 2,3-Dihydro-pyrrolo[2,1-b]thiazole-5,7-dicarboxylic acid 5-{[(R)-1-(4-fluoro-phenyl)-ethyl]-amide} 7-[((R)-1-phenyl-propyl)-amide]]	27
CC[C@@H](NC(=O)c1cc(C(=O)N[C@H](C)c2ccc(F)cc2)n2c1COCC2)c1ccc(C(F)(F)F)cn1 [16eg, 3,4-Dihydro-1H-pyrrolo[2,1-c][1,4]oxazine-6,8-dicarboxylic acid 6-{[(R)-1-(4-fluoro-phenyl)-ethyl]-amide} 8-{[(R)-1-(5-trifluoromethyl-pyridin-2-yl)-propyl]-amide}]	54
CC[C@@H](NC(=O)c1cc(C(=O)N[C@H](CC)c2cccnc2C(F)(F)F)n2c1COCC2)c1ccccc1 [16hm, 3,4-Dihydro-1H-pyrrolo[2,1-c][1,4]oxazine-6,8-dicarboxylic acid 8-[((R)-1-phenyl-propyl)-amide] 6-{[(R)-1-(2-trifluoromethyl-pyridin-3-yl)-propyl]-amide}]	660
CC[C@@H](NC(=O)c1cc(C(=O)N[C@H](C)c2ccc(F)cc2)c2n1CCOC2)c1ncccn1 [16nv, 3,4-Dihydro-1H-pyrrolo[2,1-c][1,4]oxazine-6,8-dicarboxylic acid 8-{[(R)-1-(4-fluoro-phenyl)-ethyl]-amide} 6-[((R)-1-pyrimidin-2-yl-propyl)-amide]]	170
CC[C@@H](NC(=O)c1cc(C(=O)NC(C)c2cccc(S(N)(=O)=O)c2)n2c1COCC2)c1ccccc1 (stereo partly drawn) [16ip, 3,4-dihydro-1H-pyrrolo[2,1-c][1,4]oxazine-6,8-dicarboxylic acid 8-[((R)-1-phenyl-propyl)-amide] 6-{[1-(3-sulfamoyl-phenyl)ethyl]-amide}]	1800
C[C@@H](NC(=O)c1cc(C(=O)N[C@H](C)c2ccc(F)cc2)n2c1COCC2)c1ccccc1 [16dn, 3,4-Dihydro-1H-pyrrolo[2,1-c][1,4]oxazine-6,8-dicarboxylic acid 6-{[(R)-1-(4-fluoro-phenyl)-ethyl]-amide} 8-[((R)-1-phenyl-ethyl)-amide]]	50
CC[C@@H](NC(=O)c1cc(C(=O)NC(C)COC)n2c1COCC2)c1ccccc1 (stereo partly drawn) [16gg, 3,4-Dihydro-1H-pyrrolo[2,1-c][1,4]oxazine-6,8-dicarboxylic acid 6-[(2-methoxy-1-methyl-ethyl)-amide] 8-[((R)-1-phenyl-propyl)-amide]]	230

The next lines start with the values.

IC50 [nM]	SMILES
240	CC[C@@H](NC(=O)c1cc(C(=O)N2CCC[C@@H]2C)n2c1COCC2)c1ccc(C#N)c(Cl)c1 [16d, 6-((S)-2-Methyl-pyrrolidine-1-carbonyl)-3,4-dihydro-1H-pyrrolo[2,1-c][1,4]oxazine-8-carboxylic acid [(R)-1-(3-chloro-4-cyano-phenyl)-propyl]-amide]
600	CC[C@@H](NC(=O)c1cc(C(=O)N2CCN(C)CC2c2ccccc2)n2c1COCC2)c1ccccc1 (stereo partly drawn) [16em, 6-(4-Methyl-2-phenyl-piperazine-1-carbonyl)-3,4-dihydro-1H-pyrrolo[2,1-c][1,4]oxazine-8-carboxylic acid ((R)-1-phenyl-propyl)-amide]
160	CC[C@@H](NC(=O)c1cc(C(=O)N2CC[C@H](F)C2)n2c1COCC2)c1ccccc1 [16fn, 6-((S)-3-Fluoro-pyrrolidine-1-carbonyl)-3,4-dihydro-1H-pyrrolo[2,1-c][1,4]oxazine-8-carboxylic acid ((R)-1-phenyl-propyl)-amide]
1000	CC[C@@H](NC(=O)c1cc(C(=O)N2CCC[C@@H]2C)n2c1COCC2)c1cnc(C#N)c(Cl)c1 [16rf, 6-((S)-2-Methyl-pyrrolidine-1-carbonyl)-3,4-dihydro-1H-pyrrolo[2,1-c][1,4]oxazine-8-carboxylic acid [(R)-1-(5-chloro-6-cyano-pyridin-3-yl)-propyl]-amide]
130	CC[C@@H](NC(=O)c1cc(C(=O)N2CCCC2(C)C)n2c1COCC2)c1ccccc1 [16fb, 6-(2,2-Dimethyl-pyrrolidine-1-carbonyl)-3,4-dihydro-1H-pyrrolo[2,1-c][1,4]oxazine-8-carboxylic acid ((R)-1-phenyl-propyl)-amide]
280	CC[C@@H](NC(=O)c1cc(C(=O)N2CCC[C@@H]2C)n2c1COCC2)c1ccc(Br)s1 [16bg, 6-((S)-2-methyl-pyrrolidine-1-carbonyl)-3,4-dihydro-1H-pyrrolo[2,1-c][1,4]oxazine-8-carboxylic acid [(R)-1-(5-bromo-thiophen-2-yl)-propyl]-amide]
260	CC[C@@H](NC(=O)c1cc(C(=O)NCC2CC2)n2c1CCCC2)c1ccccc1 [16mf, 5,6,7,8-Tetrahydro-indolizine-1,3-dicarboxylic acid 3-cyclopropylmethyl-amide 1-[((R)-1-phenyl-propyl)-amide]]
49	CC[C@@H](NC(=O)c1cc(C(=O)N2CCC[C@@H]2C(F)(F)F)n2c1COCC2)c1ccccc1 [16eu, 6-((R)-2-Trifluoromethyl-pyrrolidine-1-carbonyl)-3,4-dihydro-1H-pyrrolo[2,1-c][1,4]oxazine-8-carboxylic acid ((R)-1-phenyl-propyl)-amide]
600	CC[C@@H](NC(=O)c1cc(C(=O)N2CCC[C@@H]2C)n2c1CCCC2)c1ccc(C(F)(F)F)nc1 [16lw, 3-((S)-2-Methyl-pyrrolidine-1-carbonyl)-5,6,7,8-tetrahydro-indolizine-1-carboxylic acid [(R)-1-(6-trifluoromethyl-pyridin-3-yl)-propyl]-amide]
200	CC[C@@H](NC(=O)c1cc(C(=O)N2CCC[C@@H]2C)n2c1CCCC2)c1ccc(C#N)cc1 [16lx, 3-((S)-2-Methyl-pyrrolidine-1-carbonyl)-5,6,7,8-tetrahydro-indolizine-1-carboxylic acid [(R)-1-(4-cyano-phenyl)-propyl]-amide]
